What all share (format): cell-based, human
Assay [1] relates to RNA polymerase II Ser2 phosphorylation (p-Ser2) in SU-DHL-4 cells. The assay can be described thus: In vitro washout, p-Ser2 Western blot, SU-DHL-4. The settings on record: 1 µmol/L, 4-hour treatment then washout. As for the experimental part: (§1) Evaluation of the pharmacodynamic extent and duration of CDK9 inhibition were performed in vitro using the human DLBCL cell lines SU-DHL-4 and SU-DHL-10, harboring MYC amplification and MYC overexpression with P57T mutation, respectively. Cells were seeded 18 hours prior to treatment for 4 hours with one of three CDK9 inhibitors, enitociclib (0.25 and1 µmol/L), atuveciclib (1 µmol/L) or KB-0742 (1 µmol/L), cells were washed, and incubation continued until 48 hours posttreatment. Samples were collected before treatment (−4), immediately after treatment (0), and at 1, 2, 4, 8, 12, 16, 24, and 48 hours after washout for RNA sequencing (RNA-seq), qPCR, and Western blotting analyses.
(§2) The levels of p-Ser2, p-Ser5 and total RNA polymerase II, Myc, Mcl-1, cleaved PARP (cPARP), and cleaved Caspase 3 were assessed by Western blotting and quantified near-infrared detection and background corrected quantification of fluorescence intensity on an Odyssey Imaging System with IRDye secondary antibodies (LI-COR Biosciences). For quantification, the protein levels were normalized to GAPDH or HSP90, expressed as a ratio to DMSO or vehicle control at matched timepoints. The normalized relative protein levels of p-Ser2 were used for a treatment effect comparison by performing an ANOVA using PROC MIXED in SAS. The ANOVA model included treatment, timepoints and their interactions as fixed effects. The least square means (LSM), differences between the LSMs and associated P values were generated. The following primary antibodies were used: Rpb1 NTD (D8L4Y) rabbit antibody [Cell Signaling Technology (CST), #14958], anti-RNA polymerase II subunit B1 (phospho CTD Ser-2, clone 3E10) rat antibody (Merck, 04-1571-I), recombinant anti-c-MYC rabbit antibody (Y69; Abcam, #ab32072), MCL1 (D5V5L) rabbit antibody (CST, #39224), cleaved-PARP (Asp214) (E2T4K) mouse antibody (CST, #32563), HSP90 (C45G5) rabbit antibody (CST, #4877), and GAPDH mouse antibody (Zytomed Systems, #ZYT-RGM2-6C5).

Assay [2] relates to RNA polymerase II Ser2 phosphorylation (p-Ser2) in SU-DHL-10 cells. Nature of the assay: In vitro washout, p-Ser2 Western blot, SU-DHL-10. The conditions noted are these: 1 µmol/L, 4-hour treatment then washout. As for the experimental part:
as §1, §2

Assay [3] relates to MYC mRNA in SU-DHL-10 cells. The assay can be described thus: In vitro washout, MYC mRNA qPCR, SU-DHL-10. The settings on record: 1 µmol/L 4 h then washout, maintained for up to 16 hours after treatment. On the procedure: (§3) Evaluation of the pharmacodynamic extent and duration of CDK9 inhibition were performed in vitro using the human DLBCL cell lines SU-DHL-4 and SU-DHL-10, harboring MYC amplification and MYC overexpression with P57T mutation, respectively. Cells were seeded 18 hours prior to treatment for 4 hours with one of three CDK9 inhibitors, enitociclib (0.25 and1 µmol/L), atuveciclib (1 µmol/L) or KB-0742 (1 µmol/L), cells were washed, and incubation continued until 48 hours posttreatment. Samples were collected before treatment (−4), immediately after treatment (0), and at 1, 2, 4, 8, 12, 16, 24, and 48 hours after washout for RNA sequencing (RNA-seq), qPCR, and Western blotting analyses. Total RNA was extracted from blood of patients and cell lines using RNeasy Plus Mini Kit (QIAGEN, #74136) and cDNA prepared with the Maxima First Strand cDNA Synthesis Kit for RT-PCR (Thermo Fisher Scientific, K1642) according to manufacturer's instructions. The integrity of purified total RNA was evaluated using an Agilent 2100 Bioanalyzer system and RNA 6000 Nano Kit (Agilent, #5067-1511). Differential gene expression analysis was performed (Fios Genomics) from RNA-seq data (Discovery Life Sciences). MYC and MCL1 mRNA levels were measured by qPCR in vitro and in vivo, using a Taqman qPCR system (Thermo Fisher Scientific), TaqMan Fast Universal PCR Master Mix (2X) no AmpErase (#4352042) and TaqMan probes for MYC (Hs00153408_m1) and MCL1 (Hs03043899_m1). RNA-seq data were analyzed using DESeq2 ([35]).
Background: Quantitative PCR measures a nucleic acid by following its amplification.

Assay [4] deals with MCL1 mRNA in SU-DHL-10 cells. Nature of the assay: In vitro washout, MCL1 mRNA qPCR, SU-DHL-10. The settings on record: 1 µmol/L 4 h then washout, maintained for up to 16 hours after treatment. As for the experimental part:
as §3

A further assay has as its system cPARP in SU-DHL-10 cells. Nature of the assay: In vitro washout, cPARP Western blot, SU-DHL-10. The settings on record: 1 µmol/L, 4 h treatment then washout. On the procedure:
as §1
(§4) The levels of p-Ser2, p-Ser5 and total RNA polymerase II, Myc, Mcl-1, cleaved PARP (cPARP), and cleaved Caspase 3 were assessed by Western blotting and quantified near-infrared detection and background corrected quantification of fluorescence intensity on an Odyssey Imaging System with IRDye secondary antibodies (LI-COR Biosciences). For quantification, the protein levels were normalized to GAPDH or HSP90, expressed as a ratio to DMSO or vehicle control at matched timepoints. The normalized relative protein levels of p-Ser2 were used for a treatment effect comparison by performing an ANOVA using PROC MIXED in SAS. The ANOVA model included treatment, timepoints and their interactions as fixed effects. […]
(Immunoblotting shows a protein as a band on a membrane.)

Assay [5] concerns SU-DHL-4 and SU-DHL-10 cell lines. The assay can be described thus: RNA-seq differential gene expression in DLBCL cell lines. The conditions noted are these: for PHF23 and TP53RK by RNA-seq (in words): 1 µmol/L, 4 hours. As for the experimental part: as §3, with “([35]). RNA-seq data generated from the analysis of two cell lines treated with the three CDK9 inhibitors was analyzed to investigate the differences in gene expression levels between various posttreatment timepoints and the pretreatment samples. Quality control assessment and exploratory data analysis by principal component analysis (PCA) were done on raw counts and on normalized count data. Normalization of RNA-seq count data was done using trimmed mean of M-values normalization and transformed with voom, resulting in log2 counts per million with associated precision weights. […] Significance values (Padj) were adjusted for multiple testing, by controlling the FDR using the Benjamini–Hochberg procedure. […] RNA-seq data generated from blood samples taken from patients before and after their first dose (C1D1) or after multiple doses, before and after their third dose (C1D15) were analyzed and normalized using the same pipeline as cell lines for comparisons.” for “([35]).”

Assay [6] concerns Myc and Mcl-1 protein in SU-DHL-4 cells. Nature of the assay: In vitro washout, Myc and Mcl-1 protein Western blot, SU-DHL-4. The settings on record: 0.25 µmol/L enitociclib, atuveciclib (1 µmol/L). On the procedure: as §1, §4

Regarding `CCC(CC)c1cc(N[C@H]2CC[C@H](N)C2)n2nccc2n1` [KB-0742], in assay [1], the “decrease of p-Ser2 levels” value was 50% and the “duration of p-Ser2 decrease” value is “up to 12 hours”. Further, in assay [2], the “p-Ser2 inhibition (in words)” value was “only in the presence of the treatment compound and not after washout”. Moreover, the “depletion of MYC mRNA levels” value in assay [3] is reported as “approximately 50%”. For the same molecule, in assay [4], the “depletion of MCL1 mRNA levels” value was “approximately 50%”. For the same molecule, the “effect on cPARP (in words)” value with cPARP in SU-DHL-10 cells is “no effect”. In addition, the “PHF23 and TP53RK by RNA-seq (in words)” value in assay [5] is on record as “not”. Also, in assay [5] (4 hours treatment, in vitro), the “MCL1 mRNA by RNA-seq (in words)” value is listed as “upregulated” and the “MYC mRNA by RNA-seq (in words)” value is given as “not statistically significant”.
Turning to `COc1cc(F)ccc1-c1ncnc(Nc2cccc(C[S@](C)(=N)=O)c2)n1` [atuveciclib, reference compound], in assay [1], the “decrease of p-Ser2 levels” value is approximately 50% and the “duration of p-Ser2 decrease” value is listed as “up to 16 hours”. Further, in assay [2], the “p-Ser2 inhibition (in words)” value was “only in the presence of the treatment compound and not after washout”. Further, the “depletion of MYC mRNA levels” value in assay [3] is “approximately 50%”. In addition, the “depletion of MCL1 mRNA levels” value in assay [4] was “approximately 50%”. Further, in assay [6], the “sustained Myc and Mcl-1 protein depletion for 48 hours (in words)” value is “this was achieved”. The “PHF23 and TP53RK by RNA-seq (in words)” value in assay [5] is “not”. Further, in assay [5] (4 hours treatment, in vitro), the “MCL1 mRNA by RNA-seq (in words)” value is “downregulation is observed but not statistically significant”, the “MYC mRNA by RNA-seq (in words)” value is on record as “statistically significantly downregulated” and the “ZPF36 by RNA-seq (in words)” value is on record as “significantly downmodulated”.
